This is an account of results in US20050009894A1 (Aventis Pharma S.A., priority 2001, published 2005).

This assay deals with T1, human KDR enzyme (Homo sapiens, UniProt P35968).
T1 construct: The cytoplasmic domain of human KDR enzyme is cloned in the form of a GST fusion; GST; made in house; host or cells: SF21 insect cells (baculovirus, pFastBac)
Kind of assay: Phosphorylation of the substrate PLCγ by the enzyme KDR in vitro (flashplate technique). It counts as biochemical. The gist of the method: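 GST-fused human KDR cytoplasmic domain (Sf21 baculovirus, ~60% pure; 100 ng/well) phosphorylating 2 μg GST-PLCγ SH2-SH3 fragment in MOPS pH 7.2 with MgCl2/MnCl2, 1 h at 37° C. Started with γ33P-ATP plus cold ATP (2 μM in start solution); flashplate radioactivity. % inhibition vs no-compound control; IC50 from dose-response curves.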

[1] abbreviates: Table VII, degrees of activity by IC50 range, read-out: Activity.
[2] abbreviates: read-out: IC50 (μM) on inhibition of the phosphory-lation of PLCγ by KDR.

Read-outs that look alike come from different tables or passages of the source.

T1 sequence (P35968 786-1356 limits assumed): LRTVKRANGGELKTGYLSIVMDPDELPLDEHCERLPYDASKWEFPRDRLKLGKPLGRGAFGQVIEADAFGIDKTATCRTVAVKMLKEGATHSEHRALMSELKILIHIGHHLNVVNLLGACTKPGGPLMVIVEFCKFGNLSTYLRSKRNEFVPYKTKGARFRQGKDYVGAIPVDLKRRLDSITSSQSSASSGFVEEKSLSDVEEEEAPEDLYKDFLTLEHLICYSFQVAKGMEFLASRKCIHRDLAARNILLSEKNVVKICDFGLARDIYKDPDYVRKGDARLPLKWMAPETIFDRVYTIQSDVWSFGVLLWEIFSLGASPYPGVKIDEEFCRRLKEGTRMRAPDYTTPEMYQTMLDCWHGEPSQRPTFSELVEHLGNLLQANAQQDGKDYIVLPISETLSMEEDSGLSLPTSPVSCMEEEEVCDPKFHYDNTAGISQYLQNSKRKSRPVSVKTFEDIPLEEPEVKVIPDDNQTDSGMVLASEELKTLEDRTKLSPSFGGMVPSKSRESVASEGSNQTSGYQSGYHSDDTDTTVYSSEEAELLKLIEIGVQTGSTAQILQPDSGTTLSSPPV

As for `O=C(Oc1cc(-c2nc3ccccc3[nH]2)[nH]n1)c1ccccc1` [Example 217, Benzoic acid 5-(1H-benzoimidazol-2-yl)-1H-pyrazol-3-yl ester], the IC50 under setting [1] fell in the range of 0.3 to 3 µM.
On to `COc1cccc(CNC(=O)c2ccc3[nH]c(-c4n[nH]c5ccccc45)nc3c2)c1` [Example 40, 2-(1H-Indazol-3-yl)-1H-benzoimidazole-5-carboxylic acid 3-methoxy-benzylamide], for which the IC50 under setting [1] was 0.3 to 3 µM.
As for `O=C(COc1cc(-c2nc3ccccc3[nH]2)[nH]n1)C12C[C@H]3C[C@@H](C1)C[C@@H](C2)C3` [Example 206, 1-Adamantan-1-vl-2-[5-(1H-benzoimidazol-2-yl)-1H-pyrazol-3-yloxy]-ethanone], the IC50 under setting [1] is more than 3 µM.
`O=C(NCc1cccc(Cl)c1)c1cccc2nc(-c3n[nH]c4ccccc34)[nH]c12` [Example 93, 2-(1H-Indazol-3-yl)-3H-benzoimidazole-4-carboxylic acid 3-chloro-benzylamide]: the IC50 under setting [1] was more than 3 µM.
For the molecule `Cc1cc2nc(-c3n[nH]c4ccccc34)[nH]c2cc1C` [Example 15, 5,6-Dimethyl-2-(1H-indazol-3-yl)-1H-benzimidazole], under setting [2], the IC50 came to 0.8 µM.
For the molecule `O=C(COc1cc(-c2nc3ccccc3[nH]2)[nH]n1)Nc1ccccc1` [Example 204, 2-[5-(1H-Benzoimidazol-2-yl)-1H-pyrazol-3-yloxy]-N-phenyl-acetamide], under setting [1], the IC50 was more than 3 µM.
With `Cc1cc2nc(-c3cc(-c4cccs4)n[nH]3)[nH]c2cc1C` [Example 21, 5,6-Dimethyl-2-(5-thiophen-2-yl-2H-pyrazol-3-yl)-1H-benzimidazole], the inhibition at 10 µM (product tested at 10 μM, read-out: % of inhibition of the phosphorylation of PLCγ by KDR (product tested at a concentration of 10 μM)) came to 35%.
Consider `CC(C)(C)C(=O)COc1cc(-c2nc3ccccc3[nH]2)[nH]n1` [Example 205, 1-[5-(1H-Benzoimidazol-2-yl)-1H-pyrazol-3-yloxy]-3,3-dimethyl-butan-2-one], for which the IC50 under setting [1] was more than 3 µM.
Turning to `O=C(NCc1ccc(Br)cc1F)c1ccc2[nH]c(-c3n[nH]c4ccccc34)nc2c1` [Example 157, 2-(1H-Indazol-3-yl)-1H-benzoimidazole-5-carboxylic acid 4-bromo-2-fluoro-benzylamide], the IC50 under setting [1] is less than 0.3 µM.
With `O=C(NCc1ccccc1)c1cccc2nc(-c3n[nH]c4ccccc34)[nH]c12` [Example 95, 2-(1H-Indazol-3-yl)-3H-benzoimidazole-4-carboxylic acid benzylamide], the IC50 under setting [1] was more than 3 µM.
For the molecule `O=C(NCc1csc2ccc(Cl)cc12)c1ccc2[nH]c(-c3n[nH]c4ccccc34)nc2c1` [Example 60, 2-(1H-Indazol-3-yl)-1H-benzoimidazole-5-carboxylic acid (5-chloro-benzo[b]thiophen-3-ylmethyl)-amide], under setting [1], the IC50 was more than 3 µM.
`COC(=O)c1ccc2nc(-c3n[nH]c4ccccc34)[nH]c2c1` [Example 14, Methyl 2-(1H-indazol-3-yl)-3H-benzimidazole-5-carboxylate]: under setting [2], the IC50 is 1.2 µM.
Regarding `Clc1ccc(-c2ccc3nc(-c4[nH]nc5ccccc45)[nH]c3c2)cc1` [Example 101, 3-[6-(4-Chloro-phenyl)-1H-benzoimidazol-2-yl]-2H-indazole], the IC50 under setting [1] is more than 3 µM.
On the same count and under the same terms, the value for `O=C(NCc1ccccc1[N+](=O)[O-])c1cccc2nc(-c3n[nH]c4ccccc34)[nH]c12` [Example 91, 2-(1H-Indazol-3-yl)-3H-benzoimidazole-4-carboxylic acid 2-nitro-benzylamide] was 0.3 to 3 µM.
`c1ccc2[nH]c(-c3cc(OCCN4CCOCC4)n[nH]3)nc2c1` [Example 195, 2-[5-(2-Morpholin-4-yl-ethoxy)-2H-pyrazol-3-yl]-1H-benzoimidazole]: under setting [1], the IC50 is more than 3 µM.
`O=C(COc1cc(-c2nc3ccccc3[nH]2)[nH]n1)c1ccc2ccccc2c1` [Example 207, 2-[5-(1H-Benzoimidazol-2-yl)-1H-pyrazol-3-yloxy]-1-naphthalen-2-yl-ethanone]: the IC50 under setting [1] is more than 3 µM.
`CC(C)(C)OC(=O)N1CCC(CNC(=O)c2ccc3[nH]c(-c4n[nH]c5ccccc45)nc3c2)CC1` [Example 36, 4-({[2-(1H-Indazol-3-yl)-1H-benzoimidazole-5-carbonyl]-amino}-methyl)-piperidine-1-carboxylic acid tert-butyl ester]: the IC50 under setting [1] is 0.3 to 3 µM.
For `COc1ccc(C(=O)COc2cc(-c3nc4ccccc4[nH]3)[nH]n2)cc1` [Example 212, 2-[5-(1H-Benzoimidazol-2-yl)-1H-pyrazol-3-yloxy]-1-(4-methoxy-phenyl)-ethanone], the IC50 under setting [1] was more than 3 µM.
Turning to `O=C(NCc1ccccc1OC(F)(F)F)c1ccc2[nH]c(-c3n[nH]c4ccccc34)nc2c1` [Example 44, 2-(1H-Indazol-3-yl)-1H-benzoimidazole-5-carboxylic acid 2-trifluoromethoxy-benzylamide], under setting [1], the IC50 fell in the range of 0.3 to 3 µM.
As to `Cc1cc(Cl)ccc1CNC(=O)c1ccc2[nH]c(-c3n[nH]c4ccccc34)nc2c1` [Example 169, 2-(1H-Indazol-3-yl)-1H-benzoimidazole-5-carboxylic acid 4-chloro-2-methyl-benzylamide], the IC50 under setting [1] was less than 0.3 µM.
Turning to `c1ccc2c(-c3nc4ccc(-c5ccc6c(c5)OCO6)cc4[nH]3)[nH]nc2c1` [Example 117, 3-(6-Benzo[1,3]dioxole-5-yl-1H-benzoimidazol-2-yl)-2H-indazole], under setting [1], the IC50 was in the range of 0.3 to 3 µM.
Turning to `O=C(NCc1ccc(F)cc1)c1ccc2[nH]c(-c3n[nH]c4ccccc34)nc2c1` [Example 170, 2-(1H-Indazol-3-yl)-1H-benzoimidazole-5-carboxylic acid 4-fluoro-benzylamide], the IC50 under setting [1] lay in the range of 0.3 to 3 µM.
`O=C(NCc1cccc(Br)c1)c1ccc2[nH]c(-c3n[nH]c4ccccc34)nc2c1` [Example 39, 2-(1H-Indazol-3-yl)-1H-benzoimidazole-5-carboxylic acid 3-bromo-benzylamide]: the IC50 under setting [1] was in the range of 0.3 to 3 µM.
For the molecule `CC(C)=CCC/C(C)=C/COc1cc(-c2nc3ccccc3[nH]2)[nH]n1` [Example 184, 2-[5-(3,7-Dimethyl-octa-2,6-dienyloxy)-2H-pyrazol-3-yl]-1H-benzoimidazole], the IC50 under setting [1] lay within 0.3 to 3 µM.
As to `O=C(COc1cc(-c2nc3ccccc3[nH]2)[nH]n1)C1CC1` [Example 213, 2-[5-(1H-Benzoimidazol-2-yl)-1H-pyrazol-3-yloxy]-1-cyclopropyl-ethanone], the IC50 under setting [1] was more than 3 µM.
As to `O=C(NCc1ccc(Cl)nc1)c1ccc2[nH]c(-c3n[nH]c4ccccc34)nc2c1` [Example 56, 2-(1H-Indazol-3-yl)-1H-benzoimidazole-5-carboxylic acid (6-chloro-pyridin-3-ylmethyl)-amide], the IC50 under setting [1] was less than 0.3 µM.
For the molecule `O=C(Oc1cc(-c2nc3ccccc3[nH]2)[nH]n1)C1CCCC1` [Example 223, Cyclopentanecarboxylic acid 5-(1H-benzoimidazol-2-yl)-1H-pyrazol-3-yl ester], the IC50 under setting [1] was more than 3 µM.
Still for that read-out and setting: with `O=C(NCc1ccc2c(c1)CCO2)c1cccc2nc(-c3n[nH]c4ccccc34)[nH]c12` [Example 87, 2-(1H-Indazol-3-yl)-3H-benzoimidazole-4-carboxylic acid (2,3-dihydro-benzofuran-5-ylmethyl)-amide] the figure was more than 3 µM.
Turning to `O=C(Oc1cc(-c2nc3ccccc3[nH]2)[nH]n1)c1cccs1` [Example 228, Thiophene-2-carboxylic acid 5-(1H-benzoimidazol-2-yl)-1H-pyrazol-3-yl ester], under setting [1], the IC50 was more than 3 µM.
Same read-out and setting: with `Fc1ccc(-c2ccc3nc(-c4[nH]nc5ccccc45)[nH]c3c2)cc1Cl` [Example 103, 3-[6-(3-Chloro-4-fluoro-phenyl)-1H-benzoimidazol-2-yl]-2H-indazole] the figure was 0.3 to 3 µM; with `CNC(=O)c1ccc2[nH]c(-c3n[nH]c4ccccc34)nc2c1` [Example 148, 2-(1H-Indazol-3-yl)-1H-benzoimidazole-5-carboxylic acid methylamide], 0.3 to 3 µM; with `FC(F)(F)Oc1cccc(-c2ccc3nc(-c4[nH]nc5ccccc45)[nH]c3c2)c1` [Example 136, 3-[6-(3-Trifluoromethoxy-phenyl)-1H-benzoimidazol-2-yl]-2H-indazole], more than 3 µM.
Regarding `c1ccc(-c2ccc(COc3cc(-c4nc5ccccc5[nH]4)[nH]n3)cc2)cc1` [Example 193, 2-[5-(Biphenyl-4-ylmethoxy)-2H-pyrazol-3-yl]-1H-benzoimidazole], the IC50 under setting [1] was 0.3 to 3 µM.
The same measure, in the same setting: the value for `O=C(NCc1cccs1)c1cccc2nc(-c3n[nH]c4ccccc34)[nH]c12` [Example 77, 2-(1H-Indazol-3-yl)-3H-benzoimidazole-4-carboxylic acid (thiophen-2-ylmethyl)-amide] was more than 3 µM; that for `Oc1cccc(-c2ccc3nc(-c4[nH]nc5ccccc45)[nH]c3c2)c1` [Example 121, 3-[2-(2H-Indazol-3-yl)-3H-benzoimidazol-5-yl]-phenol] was 0.3 to 3 µM; that for `O=C(NCc1cccc(Cl)c1)c1ccc2[nH]c(-c3n[nH]c4ccccc34)nc2c1` [Example 72, 2-(1H-Indazol-3-yl)-1H-benzoimidazole-5-carboxylic acid 3-chloro-benzylamide] was less than 0.3 µM.
`Cc1cccc(-c2ccc3nc(-c4[nH]nc5ccccc45)[nH]c3c2)c1` [Example 108, 3-(6-m-Tolyl-1H-benzoimidazol-2-yl)-2H-indazole]: the IC50 under setting [1] lay within 0.3 to 3 µM.
For `O=C(NCc1ccco1)c1ccc2[nH]c(-c3n[nH]c4ccccc34)nc2c1` [Example 12, 2-(1H-Indazol-3-yl)-1H-benzimidazole-5-carboxylic acid N-(2-furfuryl)amide], the IC50 under setting [2] amounted to 0.16 µM.
Take `COc1cc(-c2ccc3nc(-c4[nH]nc5ccccc45)[nH]c3c2)cc(OC)c1OC` [Example 127, 3-[6-(3,4,5-Trimethoxy-phenyl)-1H-benzoimidazol-2-yl]-2H-indazole]: under setting [1], the IC50 is 0.3 to 3 µM.
